Measurements taken from patent USRE46943E1, “Radioprotector compounds and methods” (PETER MACCALLUM CANCER INSTITUTE, priority 2010, dated 2018).

Legend:
mice = assay: Radioprotection of mouse jejunum, subcutaneous administration: local reaction at injection site; type: in vivo
Method: 2-Hydroxypropyl-β-cyclodextrin (HPCD, Sigma-Aldrich, typical MW 1540) vehicle solution was prepared by dissolving 3.6 g of HPCD in 9.3 mL of phosphate buffered saline (PBS) resulting in 30% v/w solution. […] The concentration of M2PB was measured following appropriate dilution in 45% MeOH 0.1% TFA using an extinction coefficient […] at 345 nm. The M2PB/HPCD stock was diluted to 8.75 mg/mL (22 mM) in HPCD vehicle to produce the final M2PB/HPCD formulation, which was injected subcutaneously into mice, between the shoulder blades (scruff of the neck) at a volume of 8×10^−3 ml/g body weight.
The subsequent irradiation and analysis was as described for Example 56.

[1] = tested on: mouse jejunum crypt clonogens; assay: Radioprotection of mouse jejunum by intravenous 2PH (surviving crypt clonogens); type: in vivo, C3H/HeJ mice
Method: C3H/HeJ mice were administered 2PH by intravenous (tail vein) injection (30 mM solution in acetate-buffered saline, pH5; 150 mg/kg) 2 hours prior to whole body irradiation (up to 19 Gy) with ^137Cs γ-rays (GammaCell 40 Irradiator, Nordion International Inc., Canada) at a dose rate of 0.73 Gy/min, in groups of 5. The mice were euthanised 3 days 14 hours post-irradiation and the jejunum excised. Five 1 cm jejunum sections were taken from each mouse and bundled with micropore tape before being fixed in neutral buffered formalin. Samples are then paraffin embedded, sectioned and stained with Hematoxylin-Eosin. The densely stained colonies (>10 cells) arising from proliferation of surviving crypt clonogens were counted and scored on the basis of colonies per circumference.
The data for each of the two experimental groups was fitted to the expression: N(D)=N0(1−e^−Se^−αD) Where: • N0 is the initial number of clonogens per circumference, • N(D) the number of surviving clonogens per circumference after a radiation dose of D Gy, • S is the number of clonogens per crypt, and • α is the reciprocal of radiation dose corresponding to a lethal event.

[2] = subcutaneous solutions in polyethylene glycol (MW 400), similar experiments with the jejunum model

Structure (SMILES) | local reaction or toxicity at the site of subcutaneous injection (mice; [2]) | α (reciprocal of radiation dose corresponding to a lethal event), derived by curve-fitting ([1]; 150 mg/kg intravenous 2 hours prior to whole body irradiation, control 0.529+/−0.048) | dose modification factor ([1]; 150 mg/kg intravenous, from α control and α 2PH) | local reaction or toxicity at the site of subcutaneous injection (mice; M2PB/HPCD formulation (complex with 2-hydroxypropyl-β-cyclodextrin), 8.75 mg/mL subcutaneous)
CN1CCN(c2ccc3nc(-c4ccc5nc(-c6ccccn6)[nH]c5c4)[nH]c3c2)CC1 [Example 2, 2-(5′-(5″-(4′″-Methylpiperazin-1′″-yl)benzimidazol-2″-yl)benzimidazol-2′-yl)pyridine] | had been observed | 0.431+/−0.039 Gy−1 | 1.23+/−0.15 | 
c1ccc(-c2nc3ccc(-c4nc5ccc(N6CCOCC6)cc5[nH]4)cc3[nH]2)nc1 [Example 19, 2-(5′-(5″-Morpholinobenzimidazol-2″-yl)benzimidazol-2′-yl)pyridine] | had been observed |  |  | no indication of local reaction or toxicity
